Measured values: the supplement of paper PMC10307832

Key:
Test in all cases: relative viability (nuclei count vs DMSO), 5 days (fraction); higher = more cells survive
[1] = compound: CC1=CC=C(C=C1)C(=O)CN2C3=C(CCCC3)SC2=N [Pifithrin_alpha] + Nc1nc2[nH]cc(CCc3ccc(C(=O)N[C@@H](CCC(=O)O)C(=O)O)cc3)c2c(=O)[nH]1 [Pemetrexed] (partner 0.2 µM)
Summary of the method: (§1)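 Relative viability divides the nuclei count in treated wells by that in vehicle wells. Lung cancer cell lines were seeded in 1536-well plates, dosed by pin tool the next day, and fixed and stained after 5 days in one step with final 0.05% Triton X-100, 1% formaldehyde and 1 ug/ml Hoechst. Dosing was a single drug or a fixed anchor-drug dose plus five library-drug doses (not always all listed) in √10 steps, and values are medians of duplicate plates imaged at 4×.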

[2] = compound: Nc1nc(Nc2ccc3c(c2)CC[C@@H](N2CCCC2)CC3)nn1-c1cc2c(nn1)-c1ccccc1CCC2 [Bemcentinib] + Cc1nc(NC(=O)N2CCC[C@H]2C(N)=O)sc1-c1ccnc(C(C)(C)C(F)(F)F)c1 [Alpelisib] (partner 2 µM)
Summary of the method: as §1

[3] = compound: CNC(=O)c1ccccc1Sc1ccc2c(/C=C/c3ccccn3)n[nH]c2c1 [Axitinib] + CS(=O)(=O)N1CCN(Cc2cc3nc(-c4cccc5[nH]ncc45)nc(N4CCOCC4)c3s2)CC1 [Pictilisib] (partner 1 µM)
Summary of the method: as §1

[4] = compound: CNC(=O)c1ccccc1Sc1ccc2c(/C=C/c3ccccn3)n[nH]c2c1 [Axitinib] + COc1cc2c(Oc3ccc(NC(=O)C4(C(=O)Nc5ccc(F)cc5)CC4)cc3F)ccnc2cc1OCCCN1CCOCC1 [Foretinib] (partner 0.25 µM)
Summary of the method: as §1

| Cell Line | relative viability ([1]; first compound 1 µM) | relative viability ([1]; first compound 3.162 µM) | relative viability ([1]; first compound 10 µM) | relative viability ([1]; first compound 31.62 µM) | relative viability ([1]; first compound 100 µM) | relative viability ([2]; first compound 0.04 µM) | relative viability ([2]; first compound 0.1265 µM) | relative viability ([2]; first compound 0.4 µM) | relative viability ([2]; first compound 1.265 µM) | relative viability ([2]; first compound 4 µM) | relative viability ([3]; first compound 0.005 µM) | relative viability ([3]; first compound 0.01581 µM) | relative viability ([3]; first compound 0.05 µM) | relative viability ([3]; first compound 0.1581 µM) | relative viability ([3]; first compound 0.5 µM) | relative viability ([4]; first compound 0.005 µM) | relative viability ([4]; first compound 0.01581 µM) | relative viability ([4]; first compound 0.05 µM) | relative viability ([4]; first compound 0.1581 µM) | relative viability ([4]; first compound 0.5 µM) |
| --- | --- | --- | --- | --- | --- | --- | --- | --- | --- | --- | --- | --- | --- | --- | --- | --- | --- | --- | --- | --- |
| NCI-H1651 | 0.211 | 0.632 | 0.553 | 0.539 | 0.666 | 0.935 | 1.01 | 1.12 | 0.964 | 1.02 | 0.631 | 0.503 | 0.665 | 0.576 | 0.567 | 0.879 | 0.896 | 0.876 | 0.878 | 0.859 |
| NCI-H1666 | 0.876 | 0.784 | 0.767 | 0.617 | 0.714 | 0.869 | 1.05 | 0.941 | 1.02 | 1.02 | 0.414 | 0.459 | 0.433 | 0.512 | 0.584 | 1 | 1.03 | 0.995 | 1.02 | 0.935 |
| NCI-H1734 | 0.452 | 0.434 | 0.428 | 0.367 | 0.358 | 1.04 | 0.74 | 0.718 | 0.372 | 0.514 | 0.462 | 0.432 | 0.493 | 0.439 | 0.436 | 0.928 | 0.853 | 0.923 | 0.944 | 1.08 |
| NCI-H1755 | 0.417 | 0.445 | 0.381 | 0.342 | 0.446 | 0.98 | 1.03 | 1.02 | 1.06 | 1.04 | 0.482 | 0.418 | 0.55 | 0.4 | 0.454 | 0.946 | 0.931 | 0.788 | 0.888 | 0.935 |
| NCI-H1793 | 0.538 | 0.79 | 0.888 | 0.671 | 0.695 | 0.684 | 0.927 | 0.691 | 0.742 | 0.66 | 0.258 | 0.253 | 0.326 | 0.307 | 0.256 | 0.851 | 0.597 | 0.764 | 0.65 | 0.687 |
| NCI-H1915 | 0.478 | 0.547 | 0.441 |  | 0.598 | 1.15 | 1.13 | 1.1 | 1.07 | 1.08 | 0.966 | 0.994 | 0.999 | 0.888 | 0.88 | 1.07 | 1.11 | 1.08 | 1.08 | 1.13 |
| NCI-H1944 | 0.562 | 0.55 | 0.59 | 0.457 | 0.512 | 0.825 | 0.821 | 0.898 | 0.871 | 0.846 | 0.356 | 0.336 | 0.357 | 0.351 | 0.357 | 0.892 | 0.881 | 0.978 | 0.882 | 1 |
| NCI-H1975 | 0.285 | 0.277 | 0.27 | 0.212 | 0.228 | 0.645 | 0.676 | 0.715 | 0.605 | 0.632 | 0.334 | 0.311 | 0.365 | 0.317 | 0.377 | 1.05 | 0.944 | 0.938 | 0.997 | 1.03 |
| NCI-H1993 | 0.844 | 0.547 | 0.669 | 0.452 | 0.479 | 0.74 | 0.74 | 0.694 | 0.712 | 0.687 | 0.763 | 0.952 | 0.805 | 0.772 | 0.781 | 0.771 | 0.731 | 0.823 | 0.956 | 0.845 |
| NCI-H2009 | 0.985 | 1.01 | 0.949 | 0.702 | 0.944 | 1.23 | 1.2 | 1.24 | 1.2 | 1.16 | 0.875 | 0.877 | 1 | 0.868 | 1.04 | 1.21 | 1.23 | 1.23 | 1.27 | 1.08 |
| NCI-H2023 | 0.28 | 0.254 | 0.215 | 0.157 | 0.153 | 0.678 | 0.602 | 0.72 | 0.528 | 0.587 | 0.232 | 0.195 | 0.267 | 0.222 | 0.272 | 0.906 | 0.943 | 0.911 | 0.923 | 0.923 |
| NCI-H2085 | 0.945 | 0.819 | 0.888 | 0.835 | 0.713 | 0.905 | 1.08 | 1.02 | 0.983 | 0.967 | 0.457 | 0.467 | 0.441 | 0.507 | 0.373 | 0.979 | 1.05 | 0.884 | 0.9 | 1.07 |
| NCI-H2087 | 0.608 | 0.665 | 0.593 | 0.597 | 0.74 | 0.886 | 1.43 | 1.09 | 0.949 | 1.13 | 0.982 | 0.848 | 0.992 | 0.856 | 0.769 | 1.09 | 0.97 | 0.937 | 1.15 | 1.21 |
| NCI-H2126 | 0.448 | 0.656 | 0.625 | 0.56 | 0.643 | 0.799 | 0.772 | 0.669 | 0.768 | 0.786 | 0.457 | 0.475 | 0.504 | 0.522 | 0.499 | 1.27 | 0.967 | 1.09 | 1.21 | 1.26 |
| NCI-H2170 | 0.279 | 0.296 | 0.3 | 0.234 | 0.255 | 0.844 | 0.766 | 0.842 | 1.01 | 0.882 | 0.316 | 0.268 | 0.327 | 0.305 | 0.259 | 1.02 | 0.716 | 1.03 | 0.939 | 1.01 |
| NCI-H2228 | 0.406 | 0.416 | 0.335 | 0.252 | 0.298 |  | 0.636 | 0.881 | 0.809 | 0.959 | 0.472 | 0.391 | 0.416 | 0.486 | 0.622 | 0.877 | 0.95 | 0.974 | 0.842 | 0.943 |
